# Patent US20050234041A1, “Substituted 1-benzazepines and derivatives thereof” (priority 2001, published 2005)
# Like-named read-outs stand apart in the source and are kept apart here.
# How the values were obtained:
# bacteria = experiment: Antibacterial activity, broth dilution (Table III); format: cell-based; details: graded activity, organism not given
# From the text: (§1) Antibacterial activity can be determined by several standard methods well known by those skilled in the art, including disc diffusions methods, broth dilution minimal inhibitory concentration (MIC) methods, etc., including the detailed method outlined below and as defined by the National Committee of Clinical Laboratory Standards in the United States.
# (§2) MIC, Broth Dilution Method
# (§3) Cultures of bacteria are initially brought up from the freezer stocks onto chocolate agar plates by streaking a loop-full, then incubated for 18 hours at 35-37° C. in a 5% CO2 incubator.
# (§4) Five to 10 colonies are picked from the chocolate agar plate for subculture to Brain-Heart Infusion (BHI) broth or Mueller Hinton broth or BHI containing 4% serum and incubated as described.
# (§5) Evaluate the optical density of the organisms in the wells of a 96 well microtiter plate with and without the test compound. The optical density of the organisms in the presence of an active compound will be less than the optical density of the same organism untreated. The activity of the compounds is described as either negative or the lowest concentration inhibiting growth. The results are depicted in Table III, where +/− represents the least activity and ++++ represents the greatest activity. In Table IV, the results are depicted where MIC represents the lowest concentration of antibiotic that inhibits bacterial growth.
# Helicobacter pylori = experiment: MIC, broth dilution method, Helicobacter pylori; format: cell-based; details: for MIC: Helicobacter pylori
# From the text: as §1, §2, §3, §4, §5
# Campylobacter jejuni = experiment: MIC, broth dilution method, Campylobacter jejuni; format: cell-based; details: for MIC: Campylobacter jejuni
# From the text: as §1, §2, §3, §4, §5
# [1] = Table IV, MIC, lowest concentration that inhibits bacterial growth, read-out: Antibacterial Activity (micrograms/ml) Helicobacter pylori
# [2] = Table IV, MIC, lowest concentration that inhibits bacterial growth, read-out: Antibacterial Activity (micrograms/ml) Campylobacter jejuni
# [3] = Table IV, MIC, lowest concentration that inhibits bacterial growth
# [4] = Table V, read-out: MIC (μg/mL) H. pylori
# [5] = Table V, read-out: MIC (μg/mL) C. jejuni
MIC (Helicobacter pylori; [4]) [µg/mL],MIC (Campylobacter jejuni; [5]) [µg/mL],Structure (SMILES),Antibacterial Activity (bacteria),MIC (Helicobacter pylori; [1]) [µg/mL],MIC (Campylobacter jejuni; [2]) [µg/mL],melting point,Antibacterial Activity (micrograms/ml) Helicobacter pylori (Helicobacter pylori; [3]) [micrograms/ml],Antibacterial Activity (micrograms/ml) Campylobacter jejuni (Campylobacter jejuni; [3]) [micrograms/ml],MIC (μg/mL) H. pylori (Helicobacter pylori; Table V) [µg/mL],MIC (μg/mL) C. jejuni (Campylobacter jejuni; Table V)
,,"CCN1C(=O)C(C(=O)O)CCc2cc(N3CCNCC3)c(OC)cc21.Cl (racemic) [Example 15, 3(R, S)-Carboxyl-1-ethyl-8-methoxy-7-(piperazin-1-yl)-2,3,4,5-tetrahydro-1H-1-benzazepine-2-one hydrochloride]",−,> 200,> 200,173 to 176 °C (dec.),,,,
,,"COc1cc2c(cc1Br)CCC(C(=O)OC(C)(C)C)C(=O)N2 (racemic) [Example 32, 7-Bromo-3(R,S)-tert-butoxycarbonyl-8-methoxy-2,3,4,5-tetrahydro-1H-1-benzazepine-2-one]",++++,0.78,> 200,207 to 208 °C,,,,
,,"CCN1C(=O)CCCc2cc(N3CCNCC3)c(OC)cc21.Cl [Example 22, 1-ethyl-8-methoxy-7-(piperazin-1-yl)-2,3,4,5-tetrahydro-1H-1-benzazepine-2-one hydrochloride]",−,> 200,> 200,,,,,
,,"CCN1C(=O)C(C(=O)OC(C)(C)C)C=Cc2ccc(OC)cc21 (racemic) [Example 16, 3(R,S)-tert-Butoxycarbonyl-1-ethyl-8-methoxy-2,3-dihydro-1H-1-benzazepine-2-one]",++++,> 6.25,> 200,173 to 174 °C,,,,
,,"COc1cc2c(cc1Br)CCC(C(=O)OC(C)(C)C)C(=O)N2Cc1cccc(F)c1 (racemic) [Example 30, 7-Bromo-3(R,S)-tert-butoxycarbonyl-1-(3-fluorobenzyl)-8-methoxy-2,3,4,5-tetrahydro-1H-1-benzazepine-2-one]",++++,1.56,> 200,146 to 148 °C,,,,
,,"COc1cc2c(cc1N1CCN(C(=O)OCc3ccccc3)CC1)CCC(C(=O)OC(C)(C)C)C(=O)N2Cc1cccc(F)c1 (racemic) [Example 31, 7-[(4-Benzyloxycarbonyl)piperazin-1-yl]-3(R,S)-tert-butoxycarbonyl-1-(3-fluorobenzyl)-8-methoxy-2,3,4,5-tetrahydro-1 H-1-benzazepine-2-one]",++++,,,,0.78,>200,,
,,CCN1C(=O)CCCc2cc(N3CCN(C)CC3)c(OC)cc21 [Example 10],+/−,,,,>200,>200,,
,,"CCN1C(=O)C(C(=O)NC(C)(C)C)CCc2cc(Br)c(OC)cc21 (racemic) [Example 29, 7-bromo-3(R,S)-N-(tert-butyl)aminocarbonyl-1-ethyl-8-methoxy-2,3,4,5-tetrahydro-1H-1-benzazepine-2-one]",−,> 200,> 200,,,,,
,,"CCN1C(=O)C(C(=O)O)CCc2cc(Br)c(OC)cc21 (racemic) [Example 17, 7-Bromo-3(R,S)-carboxyl-1-ethyl-8-methoxy-2,3,4,5tetrahydro-1H-1-benzazepine-2-one]",+/−,200,> 200,188 to 189 °C (dec.),,,,
,,"CCN1C(=O)C(C(=O)OC(C)(C)C)CCc2ccc(OC)cc21 (racemic) [Example 12, 3(R,S)-tert-Butoxycarbonyl-1-ethyl-8-methoxy-2,3,4,5-tetrahydro-1H-1-benzazepine-2-one]",,50,> 200,132 to 133 °C,,,,
,,"COc1ccc2c(c1)NC(=O)CCC2 [Example 2, 8-Methoxy-2,3,4,5-tetrahydro-1H-1-benzazepine-2-one]",,> 200,50,105 to 106 °C,,,,
4,> 250,"COc1ccc2c(c1)NC(=O)C(C(=O)NOCc1ccccc1)CC2 (stereo not shown) [Example 193, 3-Benzyloxyaminocarbonyl-8-methoxy-2,3,4,5-tetrahydro-1H-1-benzazepine-2-one]",,,,162 to 164 °C,,,,
1,30,"O=C1CCCc2cc([N+](=O)[O-])c(O)cc2N1 [Example 175, 8-Hydroxy-7-nitro-2,3,4,5-tetrahydro-1 H-1-benzazepine-2-one]",,1,30,239 to 240 °C,,,,
,,"O=C1CCCc2ccc(O)cc2N1 [Example 33, 8-Hydroxy-2,3,4,5-tetrahydro-1H-1-benzazepine-2-one]",++++,0.78,> 200,226 to 227 °C,,,,
,,"CCN1C(=O)C(C(=O)O)CCc2ccc(OC)cc21 (racemic) [Example 5, 3(R,S)-Carboxyl-1-ethyl-8-methoxy-2,3,4,5-tetrahydro-1H-1-benzazepine-2-one]",,100,> 200,120 to 121 °C,,,,
,,"COc1ccc2c(c1)N(C(=O)OC(C)(C)C)C(=O)C(C(=O)OC(C)(C)C)CC2 (racemic) [Example 23, 1-tert-Butoxycarbonyl-3(R,S)-tert-butoxycarbonyl-8-methoxy-2,3,4,5-tetrahydro-1H -benzazepine-2-one]",,50,200,91 to 92 °C,,,,
,,"CCOC(=O)NC(=S)Nc1cc2c(cc1OC)NC(=O)C(C(=O)OC(C)(C)C)CC2 (racemic) [Example 176, 3(R,S)-tert-Butoxycarbonyl-7-[(ethoxycarbonylamino)thiocarbonyl)]amino-8-methoxy-2,3,4,5-tetrahydro-1H-1-benzazepine-2-one]",++++,,,,4,>250,4,">250, μg/mL"
,,"COc1ccc2c(c1)NC(=O)C(C(=O)OC(C)(C)C)CC2 (racemic) [Example 11, 3(R,S)-tert-Butoxycarbonyl-8-methoxy-2,3,4,5-tetrahydro-1 H-1-benzazepine-2-one]",,50,100 to 200,145 to 147 °C,,,,

Structure (SMILES),MIC (Helicobacter pylori; [4]) [µg/mL],MIC (Campylobacter jejuni; [5]) [µg/mL],Antibacterial Activity (bacteria),MIC (Helicobacter pylori; [1]) [µg/mL],MIC (Campylobacter jejuni; [2]) [µg/mL],melting point,Antibacterial Activity (micrograms/ml) Helicobacter pylori (Helicobacter pylori; [3]) [micrograms/ml],Antibacterial Activity (micrograms/ml) Campylobacter jejuni (Campylobacter jejuni; [3]) [micrograms/ml],MIC (μg/mL) H. pylori (Helicobacter pylori; Table V) [µg/mL],MIC (μg/mL) C. jejuni (Campylobacter jejuni; Table V)
"CC(C)(C)OC(=O)C1CCc2cc([N+](=O)[O-])c(O)cc2NC1=O (racemic) [Example 220, 3(R,S)-tert-Butoxycarbonyl-8-hydroxyl-7-nitro-2,3,4,5-tetrahydro-1H-1-benzazepine-2-one]",8,250,,,,189 to 191 °C (dec.),,,,
